From ChEMBL document CHEMBL5537166, “PROTACs Targeting BRM (SMARCA2) Afford Selective In Vivo Degradation over BRG1 (SMARCA4) and Are Active in BRG1 Mutant Xenograft Tumor Models” (J Med Chem, 2024)
The source made the active and inactive calls. The calls are words filed in the database; no cut-off is given here.

Legend:
NCI-H1944 = test: Antiproliferative activity against BRM-dependent human NCI-H1944 cells assessed as growth inhibition incubated for 7 days by celltiter glo 2.0 assay; type: functional; conditions: NCI-H1944, 168 h, time 7 day
Calu-6 = test: Antiproliferative activity against human Calu-6 cells assessed as growth inhibition incubated for 7 days by celltiter glo 2.0 assay; type: functional; conditions: Calu-6, 168 h, time 7 day
[1] = Plasma protein binding in mouse incubated for 15 mins by LC-MS/MS analysis; type: ADME, cell-free; conditions: read-out: PPB (converted)
[2] = Clearance in mouse at 1 mg/kg, iv measured upto 60 mins by LC-MS/MS analysis; type: ADME, organism-based; conditions: in vivo, 1 h
[3] = Half life in mouse at 1 mg/kg, iv measured upto 60 mins by LC-MS/MS analysis; type: ADME, organism-based; conditions: in vivo
[4] = Drug concentration in mouse plasma measured for 24 hrs; type: ADME, cell-free
[5] = Clearance in CD-1 mouse at 10 mg/kg, iv measured for 24 hrs; type: ADME, organism-based; conditions: in vivo
[6] = Clearance in CD-1 mouse at 30 mg/kg, iv measured for 24 hrs; type: ADME, organism-based; conditions: in vivo
[7] = Volume of distribution in CD-1 mouse at 10 mg/kg, iv measured for 24 hrs; type: ADME, organism-based; conditions: in vivo
[8] = Volume of distribution in CD-1 mouse at 30 mg/kg, iv measured for 24 hrs; type: ADME, organism-based; conditions: in vivo
[9] = Half life in CD-1 mouse at 10 mg/kg, iv measured for 24 hrs; type: ADME, organism-based; conditions: in vivo
[10] = Half life in CD-1 mouse at 30 mg/kg, iv measured for 24 hrs; type: ADME, organism-based; conditions: in vivo
[11] = Initial plasma concentration in CD-1 mouse at 10 mg/kg, iv measured for 24 hrs; type: ADME, organism-based
[12] = Initial plasma concentration in CD-1 mouse at 30 mg/kg, iv measured for 24 hrs; type: ADME, organism-based
[13] = AUClast in CD-1 mouse at 10 mg/kg, iv measured for 24 hrs; type: ADME, organism-based; conditions: in vivo
[14] = AUClast in CD-1 mouse at 30 mg/kg, iv measured for 24 hrs; type: ADME, organism-based; conditions: in vivo
[15] = Toxicity in CD-1 mouse xenografted with BRM-dependent human HCC2302 cells assessed as body weight loss at 10 mg/kg, ip administered once daily for 7 days; type: organism-based; conditions: in vivo, 168 h, time 7 day
[16] = Toxicity in CD-1 mouse xenografted with BRM-dependent human HCC2302 cells assessed as animal death at 10 mg/kg, ip administered once daily for 7 days; type: organism-based; conditions: in vivo, 168 h, time 7 day
Mus musculus [17] = test: In-vivo PROTAC activity at BRM/VHL in CD-1 mouse xenografted with human HCC2302 cells at 20 mg/kg, iv measured for 96 hrs; type: functional
Mus musculus [18] = test: In-vivo PROTAC activity at BRM/VHL in CD-1 mouse xenografted with Murine stromal cell line at 20 mg/kg, iv measured for 96 hrs; type: functional
[19] = Drug concentration in mouse tumor at 20 mg/kg, ip measured for 96 hrs; type: ADME, organism-based, Neoplasm; conditions: read-out: Ct
HCC2302 [20] = test: Antitumor activity against human BRM-dependent HCC2302 cells xenografted in CD-1 mouse assessed as tumor growth inhibition at 20 mg/kg, ip administered twice per week for 21 days; type: functional, organism-based; conditions: time 21.0 day
[21] = Toxicity in CD-1 mouse xenografted with BRM-dependent human HCC2302 cells assessed as body weight loss at 20 mg/kg, ip administered twice per week for 21 days; type: organism-based; conditions: in vivo, 504 h, time 21 day
HCC2302 [22] = test: Antitumor activity against human BRM-dependent HCC2302 cells xenografted in CD-1 mouse assessed as tumor growth inhibition at 10 mg/kg, iv administered twice per week for 21 days; type: functional, organism-based; conditions: time 21.0 day
HCC2302 [23] = test: Antitumor activity against human BRM-dependent HCC2302 cells xenografted in CD-1 mouse at 30 mg/kg, iv administered twice per week for 11 days; type: functional, organism-based; conditions: time 11.0 day
Mus musculus [24] = test: In-vivo PROTAC activity at BRM/VHL in CD-1 mouse xenografted with human HCC2302 cells assessed as reduction in BRM level in tumor at 10 mg/kg, iv administered twice weekly for 7 times for 21 days and measured after 24 hrs post dose by Western blot analysis; type: functional; design: scale not given: the % may be the effect or the level left; conditions: time 22 day
Mus musculus [25] = test: In-vivo PROTAC activity at BRM/VHL in CD-1 mouse xenografted with human HCC2302 cells assessed as reduction in BRM level in tumor at 20 mg/kg, iv administered twice weekly for 7 times for 21 days and measured after 24 hrs post dose by Western blot analysis; type: functional; design: scale not given: the % may be the effect or the level left; conditions: time 22 day
Mus musculus [26] = test: In-vivo PROTAC activity at BRM/VHL in CD-1 mouse xenografted with human HCC2302 cells assessed as reduction in BRM level in tumor at 30 mg/kg, iv administered 7 times and measured after 96 hrs by Western blot analysis; type: functional; design: scale not given: the % may be the effect or the level left
Mus musculus [27] = test: In-vivo PROTAC activity at BRG1 /VHL in CD-1 mouse xenografted with human HCC2302 cells assessed as reduction in BRG1 level in tumor at 10 mg/kg, iv administered twice weekly for 7 times for 21 days and measured after 24 hrs post dose by Western blot analysis; type: functional; design: scale not given: the % may be the effect or the level left; conditions: time 22 day
Mus musculus [28] = test: In-vivo PROTAC activity at BRG1 /VHL in CD-1 mouse xenografted with human HCC2302 cells assessed as reduction in BRG1 level in tumor at 20 mg/kg, iv administered twice weekly for 7 times for 21 days and measured after 24 hrs post dose by Western blot analysis; type: functional; design: scale not given: the % may be the effect or the level left; conditions: time 22 day
Mus musculus [29] = test: In-vivo PROTAC activity at BRG1 /VHL in CD-1 mouse xenografted with human HCC2302 cells assessed as reduction in BRG1 level in tumor at 30 mg/kg, iv administered 7 times and measured after 96 hrs by Western blot analysis; type: functional; design: scale not given: the % may be the effect or the level left
HCC2302 [30] = test: Antitumor activity against human BRM-dependent HCC2302 cells xenografted in CD-1 mouse assessed as suppression of KRT80 mRNA level at 10 mg/kg, iv administered twice weekly for 7 times for 21 days and measured after 24 hrs post dose; type: functional; conditions: time 22 day
HCC2302 [31] = test: Antitumor activity against human BRM-dependent HCC2302 cells xenografted in CD-1 mouse assessed as suppression of KRT80 mRNA level at 20 mg/kg, iv administered twice weekly for 7 times for 21 days and measured after 24 hrs post dose; type: functional; conditions: time 22 day
HCC2302 [32] = test: Antitumor activity against human BRM-dependent HCC2302 cells xenografted in CD-1 mouse assessed as suppression of KRT80 mRNA level at 30 mg/kg, iv administered 7 times and measured after 96 hrs; type: functional
HCC2302 [33] = test: Antitumor activity against human BRM-dependent HCC2302 cells xenografted in CD-1 mouse assessed as suppression of PLAU mRNA level at 10 mg/kg, iv administered twice weekly for 7 times for 21 days and measured after 24 hrs post dose; type: functional; conditions: time 22 day
HCC2302 [34] = test: Antitumor activity against human BRM-dependent HCC2302 cells xenografted in CD-1 mouse assessed as suppression of PLAU mRNA level at 20 mg/kg, iv administered twice weekly for 7 times for 21 days and measured after 24 hrs post dose; type: functional; conditions: time 22 day
HCC2302 [35] = test: Antitumor activity against human BRM-dependent HCC2302 cells xenografted in CD-1 mouse assessed as suppression of PLAU mRNA level at 30 mg/kg, iv administered 7 times and measured after 96 hrs; type: functional
HCC2302 [36] = test: Antitumor activity against human BRM-dependent HCC2302 cells xenografted in CD-1 mouse assessed as tumor growth inhibition at 10 mg/kg, iv administered twice weekly for 7 times for 21 days and measured after 24 hrs post dose; type: functional; conditions: HCC2302, 528 h, time 22 day, read-out: TGI
HCC2302 [37] = test: Antitumor activity against human BRM-dependent HCC2302 cells xenografted in CD-1 mouse assessed as tumor growth inhibition at 20 mg/kg, iv administered twice weekly for 7 times for 21 days and measured after 24 hrs post dose; type: functional; conditions: HCC2302, 528 h, time 22 day, read-out: TGI
HCC2302 [38] = test: Antitumor activity against human BRM-dependent HCC2302 cells xenografted in CD-1 mouse assessed as tumor growth inhibition at 30 mg/kg, iv administered 7 times and measured after 96 hrs; type: functional; conditions: read-out: TGI

For `Cc1ncsc1-c1ccc([C@H](C)NC(=O)[C@@H]2C[C@@H](O)CN2C(=O)[C@@H](c2cc(N3CCC(CN4CCC(O[C@H]5C[C@H](Oc6cc(N7C8CCC7CN(c7cc(-c9ccccc9O)nnc7N)C8)ccn6)C5)CC4)CC3)no2)C(C)C)cc1`, the GI50 (NCI-H1944) was 0.58 nM, the GI50 (Calu-6) was 6.5 nM and the fraction unbound at 0.25 h [1] was 0.048. For the same compound, the clearance [2] was 9.6 mL/min/kg, the half-life [3] was 16 h and the concentration at 24 h [4] was 71 nM. For the same compound, the clearance [5] was 16 mL/min/kg, the clearance [6] was 15 mL/min/kg and the Vd [7] was 6.3 L/kg. The Vd [8] was 8.7 L/kg, the half-life [9] was 6.6 h and the half-life [10] was 8.9 h. The C0 at 24 h [11] was 12600 ng/mL, the C0 at 24 h [12] was 58000 ng/mL and the AUC(0-t) at 24 h [13] was 10200 ng·h/mL. For the same compound, the AUC(0-t) at 24 h [14] was 30800 ng·h/mL, the Activity [15] was “Non-Toxic” and the Activity [16] was “Non-Toxic”. It also gave an Activity (Mus musculus [17]) of 82%, an Activity (Mus musculus [18]) of 22% and a concentration at 96 h [19] of 483 ng/g. The TGI (HCC2302 [20]) was “Active”, the Activity [21] was “Non-Toxic” and the TGI (HCC2302 [22]) was “inactive”. For the same compound, the Activity (HCC2302 [23]) was “Active”, the Activity (Mus musculus [24]) was 81% and the Activity (Mus musculus [25]) was 99%. The Activity (Mus musculus [26]) was 97%, the Activity (Mus musculus [27]) was 30% and the Activity (Mus musculus [28]) was 47%. It also gave an Activity (Mus musculus [29]) of 84%, an Activity (HCC2302 [30]) of 25% and an Activity (HCC2302 [31]) of 71%. It also gave an Activity (HCC2302 [32]) of 72%, an Activity (HCC2302 [33]) of 91% and an Activity (HCC2302 [34]) of 98%. For the same compound, the Activity (HCC2302 [35]) was 97%, the inhibition in vivo at 10 mg/kg (HCC2302 [36]) was 1% and the inhibition in vivo at 20 mg/kg (HCC2302 [37]) was 62%. The inhibition in vivo at 30 mg/kg (HCC2302 [38]) was greater than 65%.
